Source: patent US4753932A, “Novel 10-substituted steroids” (Roussel Uclaf, priority 1985, dated 1988)
Like-named read-outs stand apart in the source and are kept apart here.

What was measured:
[1] = target: T1, Progestogen receptor of rabbit uterus (Oryctolagus cuniculus, UniProt P06186); assay: Progestogen receptor of rabbit uterus: relative liaison affinity (RLA), displacement of tritiated Product R; assay type: binding; details: for relative liaison affinity (RLA), Progestogen receptor: vs tritiated Product R; for activity for the progestogen receptor (in words): conclusion
T1 construct: Their uterus were removed, weighed and homogenized at 0° C; from tissue; host or cells: 105,000 g supernatant (cytosol) of uterus from estradiol-treated impuberal rabbits
T1 sequence (P06186 1-930): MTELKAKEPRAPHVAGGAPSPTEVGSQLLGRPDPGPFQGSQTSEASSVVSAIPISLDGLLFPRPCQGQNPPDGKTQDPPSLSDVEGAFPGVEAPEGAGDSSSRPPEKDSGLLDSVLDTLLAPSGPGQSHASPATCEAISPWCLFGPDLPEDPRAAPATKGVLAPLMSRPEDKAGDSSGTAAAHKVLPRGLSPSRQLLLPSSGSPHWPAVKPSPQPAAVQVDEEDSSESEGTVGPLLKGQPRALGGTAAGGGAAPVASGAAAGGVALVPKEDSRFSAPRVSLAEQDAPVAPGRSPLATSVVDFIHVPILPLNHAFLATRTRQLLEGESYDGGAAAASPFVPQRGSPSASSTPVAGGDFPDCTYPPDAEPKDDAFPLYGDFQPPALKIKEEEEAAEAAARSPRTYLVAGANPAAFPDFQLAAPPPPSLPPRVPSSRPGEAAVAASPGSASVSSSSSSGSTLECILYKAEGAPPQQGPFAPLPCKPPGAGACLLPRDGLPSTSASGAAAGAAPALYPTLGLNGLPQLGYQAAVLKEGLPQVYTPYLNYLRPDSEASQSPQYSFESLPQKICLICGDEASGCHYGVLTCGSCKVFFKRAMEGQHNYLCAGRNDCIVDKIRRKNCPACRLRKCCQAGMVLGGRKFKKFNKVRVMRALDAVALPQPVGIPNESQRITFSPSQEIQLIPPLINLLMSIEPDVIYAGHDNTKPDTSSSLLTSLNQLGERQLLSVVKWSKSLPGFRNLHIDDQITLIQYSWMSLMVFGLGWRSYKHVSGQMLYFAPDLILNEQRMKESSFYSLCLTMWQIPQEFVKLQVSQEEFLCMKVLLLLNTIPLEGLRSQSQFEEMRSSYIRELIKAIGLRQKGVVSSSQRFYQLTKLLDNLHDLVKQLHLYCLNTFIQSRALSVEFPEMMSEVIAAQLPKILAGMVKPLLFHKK
Experimental: (1) Study of the activity on the hormone receptors
Progestogen receptor of rabbit uterus
Impuberal rabbits of about 1 kg received a cutaneous application of […] of estradiol and 5 days after this treatment, the animals were killed. Their uterus were removed, weighed and homogenized at 0° C. using a Potter teflon-glass in a TS buffered solution (Tris 10 mM, saccharose 0.25M, HCl pH 7.4) (1 g of tissue for 50 ml of TS). The homogenate was then ultracentrifuged at 105,000 g for 90 minutes at 0° C. Aliquots of the supernatant so obtained were incubated at 0° C. for a time t, with a constant concentration (T) of Product R tritiated (17,21-dimethyl-19-nor-Δ^4,9 -pregnadiene-3,20-dione) in the presence of increasing concentrations (0-2,500 10^-9 M) either of R cold, or of cold progesterone, or of the cold product under test. The concentration of tritiated R bonded (B) was then measured in each incubate by the technique of adsorption to dextran-carbon.
(§1) Calculation of the relative liaison affinity
(§2) The calculation of the relative liaison affinity (RLA) was identical for all the receptors. The two following curves were traced: the percentage of tritiated hormone bonded B as a function of the logarithm of the concentration of the cold reference hormone, and B/T as a function of the logarithm of the concentration of the cold product under test. The straight line was determined of the equation [formula] (B/T) max=percentage of tritiated hormone bonded for an incubation of this tritiated hormone at the concentration (T).
(§3) (B/T) min.=percentage of tritiated hormone bonded for an incubation of the tritiated hormone at the concentration (T) in the presence of a great excess of cold hormone (2500.10^-9 M).
(§4) The intersections of the straight line I50 and of the curves enabled the concentrations of the cold reference hormone (CH) and the cold product under test (CX) to be evaluated which inhibit by 50% the bonding of the tritiated hormone on the receptor.
The relative liaison affinity (RLA) of the product under test was determined by the equation [formula] and the following results were obtained: […]

[2] = target: T2, Glucocorticoid receptor of rat thymus (Rattus norvegicus, UniProt P06536); assay: Glucocorticoid receptor of rat thymus: relative liaison affinity (RLA), displacement of tritiated dexamethasone; assay type: binding, Male Sprague-Dawley EOPS rats; details: for relative liaison affinity (RLA), Glucocorticoid receptor: vs tritiated dexamethasone; for affinity for the glucocorticoid receptors (in words): conclusion
T2 construct: Their thymus was removed and homogenized at 0° C; from tissue; host or cells: 105,000 g supernatant (cytosol) of thymus from adrenalectomized male Sprague-Dawley rats
T2 sequence (P06536 1-795): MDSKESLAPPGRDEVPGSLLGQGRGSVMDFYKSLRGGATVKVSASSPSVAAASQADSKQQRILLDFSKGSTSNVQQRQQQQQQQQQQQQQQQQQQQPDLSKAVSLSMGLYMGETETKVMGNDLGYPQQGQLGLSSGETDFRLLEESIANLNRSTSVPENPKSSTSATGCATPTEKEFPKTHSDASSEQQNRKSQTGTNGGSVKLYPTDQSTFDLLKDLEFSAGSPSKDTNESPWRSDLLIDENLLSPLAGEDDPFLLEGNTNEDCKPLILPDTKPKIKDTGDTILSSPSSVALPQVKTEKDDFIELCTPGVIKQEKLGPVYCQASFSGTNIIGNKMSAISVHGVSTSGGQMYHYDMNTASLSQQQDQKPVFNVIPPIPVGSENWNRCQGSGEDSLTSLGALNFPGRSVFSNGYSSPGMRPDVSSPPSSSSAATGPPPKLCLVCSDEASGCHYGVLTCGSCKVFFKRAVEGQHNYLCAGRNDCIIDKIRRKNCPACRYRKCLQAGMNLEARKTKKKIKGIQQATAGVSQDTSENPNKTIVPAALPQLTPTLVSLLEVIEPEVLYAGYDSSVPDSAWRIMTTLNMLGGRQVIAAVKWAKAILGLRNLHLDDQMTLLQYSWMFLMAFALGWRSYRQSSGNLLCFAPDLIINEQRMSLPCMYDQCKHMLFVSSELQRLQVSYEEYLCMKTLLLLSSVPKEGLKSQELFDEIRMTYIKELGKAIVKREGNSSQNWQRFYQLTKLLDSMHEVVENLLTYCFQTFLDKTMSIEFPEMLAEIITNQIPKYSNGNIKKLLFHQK
Experimental: Glucocorticoid receptor of rat thymus:
Their thymus was removed and homogenized at 0° C. in a buffer Tris 10 mM saccharose 0.25M, dithiotreitol 2 mM, HCl pH 7.4, using a Potter polytetrafluoroethylene-glass (1 g of tissue for 10 ml of TS). The homogenate was then ultracentrifuged at 105,000 g for 90 minutes at 0° C. Aliquots of the supernatant so obtained were incubated at 0° C. for a time (t) with a constant concentration (T) of tritiated dexamethasone in the presence of increasing concentrations (0-2,500.10^-9 M) either of cold dexamethasone, or of the cold product under test. The concentration of tritiated dexamethasone bonded (B) was then measured in each incubate by the technique of adsorption to dextran-carbon.
as §1, §2, §3, §4

[3] = tested on: Thymocytes of suprarenalectomized rats; assay: Anti-glucocorticoid activity: inhibition of the effect of dexamethasone on incorporation of tritiated uridine in thymocytes; assay type: cell-based; details: for inhibition at 1 µM / inhibition at 0.1 µM / inhibition at 0.01 µM: Thymocyte, read-out: % inhibition of the effect of Dexamethasone
Experimental: (II). Anti-glucocorticoid activity
The technique utilized envolved from the method described by Dausse et al in "Molecular Pharmacology", Vol. 13, p. 948-955 (1977) ("the relationship between glucocorticoid structure and effects upon Thymocytes") for the thymocytes of mice. Thymocytes of suprarenalectomized rats were incubated at 37° C. for 3 hours in a nutritive medium containing 5.10^-8 M of dexamethasone in the presence or not of a product under study at different concentrations. Tritiated uridine was added and the incubation was continued for one hour. The incubates were cooled, then treated with a 5% solution of trichloroacetic acid, filtered on Whatman paper GF/A, and washed three times with a 5% solutioh of trichloroacetic acid. The radio-activity retained by the filter was determined.

[4] = 5.10^-8 M dexamethasone, rat thymocytes
[5] = product at 10^-6 M, 5.10^-8 M dexamethasone, rat thymocytes, 37° C., 3 hours
[6] = product at 10^-7 M, 5.10^-8 M dexamethasone, rat thymocytes, 37° C., 3 hours
[7] = product at 10^-8 M, 5.10^-8 M dexamethasone, rat thymocytes, 37° C., 3 hours

Compound	relative liaison affinity (RLA), Progestogen receptor ([1]; Incubation time 2 H at 0° C.)	relative liaison affinity (RLA), Progestogen receptor ([1]; Incubation time 24 H at 0° C.)	activity for the progestogen receptor (in words) [1]	relative liaison affinity (RLA), Glucocorticoid receptor ([2]; Incubation time 4 H at 0° C.)	relative liaison affinity (RLA), Glucocorticoid receptor ([2]; Incubation time 24 H at 0° C.)	affinity for the glucocorticoid receptors (in words) [2]	effect on dexamethasone-induced diminution in the incorporation of tritiated uridine (in words) [3, 4]	inhibition at 1 µM [3, 5] [%]	inhibition at 0.1 µM [3, 6] [%]	inhibition at 0.01 µM [3, 7] [%]	incorporation of tritiated uridine (in words) ([3]; rat thymocytes, dexamethasone)	inhibition at 0.01 µM ([3]; Rattus norvegicus, 3 h) [%]	inhibition at 0.1 µM ([3]; Rattus norvegicus, 3 h) [%]	inhibition at 1 µM ([3]; Rattus norvegicus, 3 h) [%]
C=C(C)C[C@]12CCC(=O)C=C1CC[C@@H]1C2=CC[C@@]2(C)[C@H]1CC[C@@]2(O)C#CC [Example 7, 10β-(2-methyl-prop-2-en-1-yl)-17α-(prop-1-ynyl)-Δ^4,9(11) -estradien 17β-ol-3-one]	0.4	0.1	negligible activity	226	112	very marked affinity	oppose this effect	65	16	10	–	–	–	–
C[C@@H]1C[C@H]2[C@@H]3CCC4=CC(=O)C=C[C@]4(C)[C@@]3(F)[C@@H](O)C[C@]2(C)[C@@]1(O)C(=O)CO [dexamethasone, reference compound]	–	–	–	–	–	–	–	–	–	–	diminution in the incorporation of tritiated uridine	–	–	–
CC#C[C@]1(O)CC[C@H]2[C@@H]3CCC4=CC(=O)CC[C@]4(Cc4ccccc4)C3=CC[C@@]21C [Example 1, 10β-benzyl-17α-(prop-1-ynyl)-Δ^4,9(11) -estradien-17β-ol-3-one]	0.1	0.1	negligible activity	160	57	very marked affinity	oppose this effect	80	55	20	–	–	–	–
CC#C[C@]1(O)CC[C@H]2[C@@H]3CCC4=CC(=O)CC[C@]4(Cc4ccc(C)cc4)C3=CC[C@@]21C [Example 4, 10β-[4-methyl-benzyl]-17α-(prop-1-ynyl)-Δ^4,9(11) -estradiene-17β-ol-3-one]	–	–	negligible activity	–	–	–	oppose this effect	–	–	–	–	10	30	83
CC#C[C@]1(O)CC[C@H]2[C@@H]3CCC4=CC(=O)CC[C@]4(Cc4ccccc4F)C3=CC[C@@]21C [Example 12, 10β-[2-fluorobenzyl]-17α-(prop-1-ynyl)-Δ^4,9(11) -estradien-17β-ol-3-one]	0.1	0.1	negligible activity	136	45	very marked affinity	oppose this effect	67	12	6	–	–	–	–
CC#C[C@]1(O)CC[C@H]2[C@@H]3CCC4=CC(=O)CC[C@]4(Sc4ccc(OC)cc4)C3=CC[C@@]21C [Example 10, 10β-[(4-methoxyphenyl)-thio]-17α-(prop-1-ynyl)-Δ^4,9(11) -estradien-17β-ol-3-one]	0.9	0.5	negligible activity	218	152	very marked affinity	oppose this effect	–	–	–	–	–	–	–
